GI50 data for 26 molecules are collected here from patent US20240246940A1, “HETEROARYL DERIVATIVE COMPOUND AND USE THEREOF” (VORONOI INC., priority 2021, published 2024).

Like-named read-outs stand apart in the source and are kept apart here. Where only a bound is given, the exact number is not on record here.

In test [1] the test system is HaCaT cells (EGFR expressing cell line). Put plainly: HaCaT cell proliferation inhibitory activity (CellTiter-Glo, 72 hours). The format is cell-based. The gist of the method:
(§1)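 Cells seeded 24 h (HaCaT 3000/well, N-87 5000/well) or 48 h (SK-BR-3, BT-474 5000/well) before 11-point dosing: 0.2 nM–10 μM (SK-BR-3, BT-474), […]–5 μM (N-87), 0.8 nM–45 μM (HaCaT). CellTiter-Glo luminescence read; GI50 from growth relative to control, triplicate.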
For orientation: Cellular ATP, detected with luciferase, serves as a proxy for viable cell number.

Test [2] relates to SK-BR-3 cells (HER2 overexpressing cell line). Put plainly: SK-BR-3 cell proliferation inhibitory activity (CellTiter-Glo, 120 hours). The format is cell-based. The gist of the method:
as §1

For `C=CC(=O)N1CC(Oc2cc3c(Nc4cc(-c5ccco5)ccc4OC4CCOCC4)ncnc3cc2OC)C1` [Example 249, 1-(3-((4-((5-(furan-2-yl)-2-((tetrahydro-2H-pyran-4-yl)oxy)phenyl)amino)-7-methoxyquinazolin-6-yl)oxy)azetidin-1-yl)prop-2-en-1-one], the GI50 in test [1] (Homo sapiens) is ≤ 150 nM; in test [2] (Homo sapiens), 150 to 1000 nM.

Consider `C=CC(=O)N1CCC(Oc2cc3c(Nc4cc(-c5ccc(F)nc5)ccc4OC)ncnc3cc2OC)CC1` [Example 133, 1-(4-((4-((5-(6-fluoropyridin-3-yl)-2-methoxyphenyl)amino)-7-methoxy-quinazolin-6-yl)oxy)piperidin-1-yl)prop-2-en-1-one], for which the GI50 in test [1] (Homo sapiens) and in test [2] (Homo sapiens) was 150 to 1000 nM in each case.

`C=CC(=O)Nc1cc2c(Nc3cc(-c4ccco4)ccc3OC)ncnc2cc1OC` [Example 289, N-(4-((5-(furan-2-yl)-2-methoxyphenyl)amino)-7-methoxyquinazolin-6-yl)acrylamide]: the 50% growth inhibitory concentration (GI50) in test [1] (Homo sapiens) and in test [2] (Homo sapiens) was ≤ 150 nM in each case.

Turning to `C=CC(=O)N1CCC(Oc2cc3c(Nc4cc(-c5ccco5)cnc4OC)ncnc3cc2OC)CC1` [Example 104, 1-(4-((4-((5-(furan-2-yl)-2-methoxy-pyridin-3-yl)amino)-7-methoxy-quinazolin-6-yl)oxy)piperidin-1-yl)prop-2-en-1-one], the GI50 in test [1] (Homo sapiens) and in test [2] (Homo sapiens) was ≤ 150 nM each time.

With `C=CC(=O)N1CCC(Oc2cc3c(Nc4cc(-c5ccoc5C)ccc4OC)ncnc3cc2OC)CC1` [Example 84, 1-(4-((7-methoxy-4-((2-methoxy-5-(2-methylfuran-3-yl)phenyl)amino)quinazolin-6-yl)oxy)piperidin-1-yl)prop-2-en-1-one], the GI50 in test [1] (Homo sapiens) and in test [2] (Homo sapiens) was ≤ 150 nM throughout.

In the case of `C=CC(=O)N1CCC(Oc2cc3c(Nc4cc(-c5ccc(C)cc5F)ccc4OC)ncnc3cc2OC)CC1` [Example 131, 1-(4-((4-((2′-fluoro-4-methoxy-4′-methyl-[1,1′-biphenyl]-3-yl)amino)-7-methoxy-quinazolin-6-yl)oxy)piperidin-1-yl)prop-2-en-1-one], the GI50 in test [1] (Homo sapiens) and in test [2] (Homo sapiens) was 150 to 1000 nM throughout.

On to `C=CC(=O)N1CCC(Oc2cc3c(Nc4cc(-c5cccs5)ccc4OCC)ncnc3cc2OC)CC1` [Example 117, 1-(4-((4-((2-ethoxy-5-(thiophen-2-yl)phenyl)amino)-7-methoxy-quinazolin-6-yl)oxy)piperidin-1-yl)prop-2-en-1-one], for which the GI50 in test [1] (Homo sapiens) and in test [2] (Homo sapiens) was ≤ 150 nM in each case.

Regarding `C=CC(=O)N1CC(Oc2cc3c(Nc4cc(-c5cnn6cccnc56)ccc4OC)ncnc3cc2OC)C1` [Example 39, 1-(3-((7-methoxy-4-((2-methoxy-5-(pyrazolo[1,5-a]pyrimidin-3-yl)phenyl)amino)quinazolin-6-yl)oxy)azetidin-1-yl)prop-2-en-1-one], the GI50 in test [1] (Homo sapiens) and in test [2] (Homo sapiens) was 150 to 1000 nM each time.

For `C=CC(=O)N1CCC(Oc2cc3c(Nc4cc(-c5cccc(N)c5)ccc4OC)ncnc3cc2OC)CC1` [Example 180, 1-(4-((4-((3′-amino-4-methoxy-[1,1′-biphenyl]-3-yl)amino)-7-methoxy-quinazolin-6-yl)oxy)piperidin-1-yl)prop-2-en-1-one], the GI50 in test [1] (Homo sapiens) is > 1000 nM; in test [2] (Homo sapiens), 150 to 1000 nM.

On to `C=CC(=O)N1CCC(Oc2cc3c(Nc4cc(-c5ccco5)ccc4OC)ncnc3cc2OC)CC1C(F)(F)F` (stereo not shown) [Example 114, 1-(4-((4-((5-(furan-2-yl)-2-methoxyphenyl)amino)-7-methoxy-quinazolin-6-yl)oxy)-2-(trifluoro-methyl)piperidin-1-yl)prop-2-en-1-one], for which the values for the GI50 in test [1] and in test [2] were ≤ 150 nM and 150 to 1000 nM, respectively.

On to `C=CC(=O)N1CCC(Oc2cc3c(Nc4cc(-c5cccs5)ccc4OC4CCOCC4)ncnc3cc2OC)CC1` [Example 257, 1-(4-((7-methoxy-4-((2-((tetrahydro-2H-pyran-4-yl)oxy)-5-(thiophen-2-yl)phenyl)amino)quinazolin-6-yl)oxy)piperidin-1-yl)prop-2-en-1-one], for which the GI50 in test [1] (Homo sapiens) was ≤ 150 nM; in test [2] (Homo sapiens), 150 to 1000 nM.

Take `C=CC(=O)N1CCC(Oc2cc3c(Nc4cc(-c5ccco5)ccc4OC)ncnc3cc2OC)CC1C(F)(F)F` (stereo not shown) [Example 164, 1-(4-((4-((5-(furan-2-yl)-2-methoxyphenyl)amino)-7-methoxy-quinazolin-6-yl)oxy)-2-(trifluoromethyl)piperidin-1-yl)prop-2-en-1-one]: the values for the 50% growth inhibitory concentration (GI50) in test [1] (Homo sapiens) and in test [2] (Homo sapiens) were ≤ 150 nM and 150 to 1000 nM, respectively.

As for `C=CC(=O)Nc1cc2c(Nc3cc(-c4ccc5occc5c4)ccc3OC)ncnc2cc1OC` [Example 288, N-(4-((5-(benzofuran-5-yl)-2-methoxyphenyl)amino)-7-methoxyquinazolin-6-yl)acrylamide], the results for the GI50 in test [1] (Homo sapiens) and in test [2] (Homo sapiens) were > 1000 nM and 150 to 1000 nM, respectively.

As for `C=CC(=O)N1CCC(Oc2cc3c(Nc4cc(-c5cncs5)ccc4OC)ncnc3cc2OC)CC1` [Example 77, 1-(4-((7-methoxy-4-((2-methoxy-5-(thiazol-5-yl)phenyl)amino)quinazolin-6-yl)oxy)piperidin-1-yl)prop-2-en-1-one], the GI50 in test [1] (Homo sapiens) and in test [2] (Homo sapiens) was 150 to 1000 nM each time.

For `C=CC(=O)N1CC(Oc2cc3c(Nc4cc(-c5ccc(F)cc5C)ccc4OC)ncnc3cc2OC)C1` [Example 25, 1-(3-((4-((4'-fluoro-4-methoxy-2′-methyl-[1,1′-biphenyl]-3-yl)amino)-7-methoxy-quinazolin-6-yl)oxy)azetidin-1-yl)prop-2-en-1-one], the GI50 in test [1] (Homo sapiens) and in test [2] (Homo sapiens) was ≤ 150 nM each time.

For `C=CC(=O)N1CC(Oc2cc3c(Nc4cc(-c5cc(F)ccc5F)ccc4OC)ncnc3cc2OC)C1` [Example 10, 1-(3-((4-((2′,5′-difluoro-4-methoxy-[1,1′-biphenyl]-3-yl)amino)-7-methoxy-quinazolin-6-yl)oxy)azetidin-1-yl)prop-2-en-1-one], the GI50 in test [1] (Homo sapiens) and in test [2] (Homo sapiens) was ≤ 150 nM each time.

In the case of `C=CC(=O)N1CCC(Oc2cc3c(Nc4cc(-c5cccc(F)c5F)ccc4OC)ncnc3cc2OC)CC1` [Example 137, 1-(4-((4-((2′,3′-difluoro-4-methoxy-[1,1′-biphenyl]-3-yl)amino)-7-methoxy-quinazolin-6-yl)oxy)piperidin-1-yl)prop-2-en-1-one], the GI50 in test [1] (Homo sapiens) and in test [2] (Homo sapiens) was ≤ 150 nM throughout.

Turning to `C=CC(=O)N1CCC(F)(F)C(Oc2cc3c(Nc4cc(-c5ccc(F)cc5F)ccc4OC)ncnc3cc2OC)C1` (stereo not shown) [Example 141, 1-(3-((4-((2′,4′-difluoro-4-methoxy-[1,1′-biphenyl]-3-yl)amino)-7-methoxy-quinazolin-6-yl)oxy)-4,4-difluoro-piperidin-1-yl)prop-2-en-1-one], the GI50 was 150 to 1000 nM in test [1] (Homo sapiens) and > 1000 nM in test [2] (Homo sapiens).

As to `C=CC(=O)N1CCC(Nc2cc3c(Nc4cc(-c5ccco5)ccc4OC)ncnc3cc2OCCN2CCOCC2)CC1` [Example 272, 1-(4-((4-((5-(furan-2-yl)-2-methoxyphenyl)amino)-7-(2-morpholinoethoxy)quinazolin-6-yl)amino)piperidin-1-yl)prop-2-en-1-one], the GI50 in test [1] (Homo sapiens) and in test [2] (Homo sapiens) was ≤ 150 nM each time.

Take `C=CC(=O)N1CC(Oc2cc3c(Nc4cc(-c5ccc6ccn(C)c6c5)ccc4OC)ncnc3cc2OC)C1` [Example 34, 1-(3-((7-methoxy-4-((2-methoxy-5-(1-methyl-1H-indol-6-yl)phenyl)amino)quinazolin-6-yl)oxy)azetidin-1-yl)prop-2-en-1-one]: the GI50 in test [1] (Homo sapiens) is 150 to 1000 nM; in test [2] (Homo sapiens), > 1000 nM.

With `C=CC(=O)N1CC2(C1)CN(c1cc3c(Nc4cc(-c5ccco5)ccc4OC)ncnc3cc1OC)C(=O)O2` [Example 330, 2-acryloyl-7-(4-((5-(furan-2-yl)-2-methoxyphenyl)amino)-7-methoxyquinazolin-6-yl)-5-oxa-2,7-diazaspiro[3.4]octan-6-one], the GI50 in test [1] (Homo sapiens) and in test [2] (Homo sapiens) was 150 to 1000 nM throughout.

Consider `C=CC(=O)N1CC(Oc2cc3c(Nc4cc(-c5cc(F)cc(F)c5)ccc4OC)ncnc3cc2OC)C1` [Example 11, 1-(3-((4-((3′,5′-difluoro-4-methoxy-[1,1′-biphenyl]-3-yl)amino)-7-methoxy-quinazolin-6-yl)oxy)azetidin-1-yl)prop-2-en-1-one], for which the GI50 in test [1] (Homo sapiens) was ≤ 150 nM; in test [2] (Homo sapiens), 150 to 1000 nM.

Regarding `C=CC(=O)N1CCC(Oc2cc3c(Nc4cc(-c5cccs5)c(C)cc4OC)ncnc3cc2OC)CC1` [Example 95, 1-(4-((7-methoxy-4-((2-methoxy-4-methyl-5-(thiophen-2-yl))amino)quinazolin-6-yl)oxy)piperidin-1-yl)prop-2-en-1-one], the results for the GI50 in test [1] (Homo sapiens) and in test [2] (Homo sapiens) were ≤ 150 nM and 150 to 1000 nM, respectively.

For the molecule `C=CC(=O)N1CCC(Oc2cc3c(Nc4cc(-c5ccco5)ccc4OC4CCN(C)C4)ncnc3cc2OC)CC1` (stereo not shown) [Example 251, 1-(4-((4-((5-(furan-2-yl)-2-((1-methylpyrrolidin-3-yl)oxy)phenyl)amino)-7-methoxyquinazolin-6-yl)oxy)piperidin-1-yl)prop-2-en-1-one], the GI50 in test [1] (Homo sapiens) and in test [2] (Homo sapiens) was ≤ 150 nM each time.

`C=CC(=O)N1CCC(Oc2cc3c(Nc4cc(-c5ccccc5F)ccc4OC)ncnc3cc2OC)CC1` [Example 136, 1-(4-((4-((2′-fluoro-4-methoxy-[1,1′-biphenyl]-3-yl)amino)-7-methoxy-quinazolin-6-yl)oxy)piperidin-1-yl)prop-2-en-1-one]: the GI50 in test [1] (Homo sapiens) and in test [2] (Homo sapiens) was ≤ 150 nM each time.

Turning to `C=CC(=O)N1CC(Oc2cc3c(Nc4cc(-c5ccc(C#N)cc5)ccc4OC)ncnc3cc2OC)C1` [Example 26, 3′-((6-((1-acryloylazetidin-3-yl)oxy)-7-methoxy-quinazolin-4-yl)amino)-4′-methoxy-[1,1′-biphenyl]-4-carbonitrile], the GI50 in test [1] (Homo sapiens) and in test [2] (Homo sapiens) was ≤ 150 nM in each case.

As a reminder, the GI50 is the concentration that inhibits growth by half.
